For data set [1] the following is noted: male Wistar rats; cited from earlier work.
The next data set deals with PARK-7 −/− HeLa cells. Briefly: Cell growth of PARK-7 −/− HeLa cells. As to conditions: 5 mM, FIG. 16. In kind it is cell-based, human. The protocol: GA enhances cell proliferation in PARK-7 −/− HeLa cells. […] Knocking-down PARK-7 with CRISP/Cas-9 leads to a reduced cell proliferation when compared to WT cells. […] Treatment with GA increases cell proliferation in HeLa cells.
Cell growth was determined by two different methods. The first method (WST1-Assay) was used to analyze cell growth at different time points using the same plates: 500 cells of 8 different PARK7 KO clones and HeLa Kyoto wild type cells were seeded in 96 well plates (6 wells/line). For each time point (0 h, 48 h, 122 h, and 144 h), WST1 was added to the cells according to the manufacturers instructions and incubated for 30 min at 37° C. Absorbance was measured at 450 nm and 620 nm using an EnVision Plate Reader (PerkinElmer).
The second method was used to analyze the rescue effect of GA and DL. Briefly, HeLa cells were seeded and treated with medium containing distilled water, 5 mM GA, or 5 mM DL. 48 hours later, the number of living cells was calculated with the help of an automated cell counter (ThermoFischer, USA).
HeLa-Kyoto PARK7 KO clones had been kindly provided by Martin Stewart (Koch Institute, MIT, Cambridge, USA). Briefly, cells were electroporated with the NEON device (Invitrogen) using a sgRNA-Cas9-NLS complex targeting human PARK7 at exon 1. […]

In another data set the test system is dopaminergic neurons. Particulars: after DJ-1 knock-out or paraquat treatment; cited from earlier work.
Another data set deals with HeLa cells. Briefly: NAD(P)H live-cell microscopy. As to conditions: 5 mM, FIG. 13. It is filed as cell-based.

`O=C(O)CO` [GA, 2-hydroxyethanoic acid]: the “kidney findings after administration” value in data set [1] is “formation of hyperoxaluria and calcium oxalate precipitates”. The “cell proliferation (number of cells after 48 hours)” value in the data set with PARK-7 −/− HeLa cells is reported as “rescues cell proliferation defects”. Further, the “survival of dopaminergic neurons” value with dopaminergic neurons was “rescued the survival of dopaminergic neurons”. Besides, the “mitochondrial NAD(P)H production” value in the data set with HeLa cells is listed as “increases mitochondrial NAD(P)H production”.
